Starred links: 1 amine or outer side, 2 acyl side, 3 side chain; linkers in the order of their positions; H or OH if unused. Positions of bridges follow the written chain, without caps; N, C: chain ends. Non-standard residues stand in square brackets, D forms with d. Residues, ends and D or L forms follow the SMILES beside them. ξ: configuration not given here. X1 = O=C([C@@H]1CCN=C2C(N[*:1])=Cc3cc(O)c(O)cc3N21)[*:2]; ξOrn(N(OH)CHO) = NC(CCCN(O)C=O)C(=O)O; Suc = O=C(CCC(=O)[*:2])[*:1]; ξK = NCCCCC(N)C(=O)O; ξS = NC(CO)C(=O)O
Legend:
FpvB R648C = biological target: T1, FpvB R648C (Pseudomonas aeruginosa, UniProt A0A0H2ZFZ5, R648C); test: Whole-cell fluorescence quenching, FpvB R648C in ΔfpvA ΔfpvB; assay type: binding
T1 sequence (A0A0H2ZFZ5 23-802 R648C): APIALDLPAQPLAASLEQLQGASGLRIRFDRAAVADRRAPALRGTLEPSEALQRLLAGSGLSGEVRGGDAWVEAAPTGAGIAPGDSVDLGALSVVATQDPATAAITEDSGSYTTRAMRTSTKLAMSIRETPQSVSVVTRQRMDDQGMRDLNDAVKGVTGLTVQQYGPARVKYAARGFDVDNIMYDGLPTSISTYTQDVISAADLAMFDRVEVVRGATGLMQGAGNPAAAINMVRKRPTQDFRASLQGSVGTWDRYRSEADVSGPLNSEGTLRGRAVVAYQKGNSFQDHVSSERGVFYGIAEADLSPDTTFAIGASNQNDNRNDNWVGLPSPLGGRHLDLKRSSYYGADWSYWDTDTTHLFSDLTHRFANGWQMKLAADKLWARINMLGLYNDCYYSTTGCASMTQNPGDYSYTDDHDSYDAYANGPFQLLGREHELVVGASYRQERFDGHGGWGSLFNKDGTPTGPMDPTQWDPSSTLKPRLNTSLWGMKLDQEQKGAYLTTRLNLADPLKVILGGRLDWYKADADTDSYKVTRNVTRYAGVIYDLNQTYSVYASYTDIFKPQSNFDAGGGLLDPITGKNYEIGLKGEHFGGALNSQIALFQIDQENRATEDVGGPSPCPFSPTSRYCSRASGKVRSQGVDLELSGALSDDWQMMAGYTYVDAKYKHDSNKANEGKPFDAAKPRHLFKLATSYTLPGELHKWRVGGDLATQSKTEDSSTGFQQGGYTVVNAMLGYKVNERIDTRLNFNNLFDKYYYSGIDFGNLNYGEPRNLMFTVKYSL
Excerpt: To determine the affinity of the siderophores for FpvA and FpvB, we adapted the method from Chakravorty et al. to generate a whole-cell sensor where fluorescence quenching serves as an indicator of ligand interaction ([31]). Siderophore binding triggers conformational changes at the extracellular loops of the TBDT (Fig. 3A). Cys substitutions were introduced at the loops and labeled with a fluorescent maleimide dye. When a ligand binds the transporter, the loops fold inward toward the lumen of the barrel, and changes in the chemical environment surrounding the fluorophore lead to quenching ([31], [32]). Fluorescence recovery occurs once the siderophore is taken up and the loop returns to its original conformation.
Cells were cultured overnight in LB with carbenicillin (200 μg/mL) at 37°C with shaking at 200 rpm. Cells were subcultured (1:200 dilution) in 10:90 plus 2% arabinose for 4 h without carbenicillin at 37°C with shaking at 200 rpm. […] Excess dye was quenched with 1 mM dithiothreitol (DTT) (Sigma) to stop the reaction. Cells were washed 3× with PBS. For fluorescence recovery assays, cells were incubated with 1× PBS plus 0.4% glucose at 37°C with shaking at 200 rpm. Glucose was prepared as a 20% stock (wt/vol) in 1× PBS and filter sterilized. Cells were spun down and washed 3× with 1× PBS and resuspended in 1× PBS for quenching assays and 1× PBS plus 0.4% glucose for fluorescence recovery assays.
For fluorescence quenching and recovery assays, cells were diluted to an OD600 of 0.1 for both types of assays, and 148 μL was added into wells of a 96-well black plate (Corning). Fluorescence was recorded for 5 min at 1-min intervals at 37°C (BioTek Neo; excitation, 494 nm; emission, 520 nm). After 5 min, 2 μL of each serial dilution for ferrioxamine-Fe^3+, ferrichrome-Fe^3+, and pyoverdine-Fe^3+ or DMSO for vehicle controls was added to each well. Fluorescence was recorded immediately for quenching assays and for 1 h at 1-min intervals for fluorescence recovery assays. Background fluorescence was subtracted from all fluorescence readings and 1-F/F0 was used to calculate the degree of quenching, where F0 is the initial fluorescence. Kd was calculated using GraphPad Prism using a one-site specific binding model or a two-site model. For fluorescence recovery assays, background was subtracted from all fluorescence readings and F/F0 expressed as a percent of control was plotted versus time.

[1] = system: PA14 ΔfpvA ΔfpvB ΔfiuA ΔfoxA pHERD20T-fpvB Y216T; test: Growth of quadruple mutant expressing FpvB Y216T; assay type: cell-based, Pseudomonas aeruginosa; conditions: 10:90 + 2% arabinose
Description: Site-directed mutagenesis was used to confirm the docking predictions and to define the molecular determinants for ligand uptake through FpvB (Fig. 4C). We generated 17 single amino acid substitutions in FpvB and expressed each of them in trans in the quadruple ΔfpvA ΔfpvB ΔfiuA ΔfoxA mutant. Their ability to complement growth of the mutant in the presence of ferrichrome and ferrioxamine B and to restore TS susceptibility was assessed. […] The mutant transporters were tagged with a C-terminal FLAG tag to evaluate expression levels. FLAG-tagged FpvB mutants had WT levels of expression except for Y216T and W347V, which were expressed at 140% and 25% of WT, respectively.
The ΔfpvA ΔfpvB ΔfiuA ΔfoxA mutant was complemented with WT fpvA, fpvB, fiuA, and foxA in trans as controls (Fig. 4E).
MIC assays were conducted as previously described ([13], [14]). Overnight cultures were grown in LB from a glycerol stock at 37°C with shaking (200 rpm). Subcultures in 10:90 (1:100 dilution) were cultured for 4 h. Cells were adjusted to an optical density at 600 nm (OD600) of 0.1/500 in 10:90. All compounds were serially diluted 2-fold in dimethyl sulfoxide (DMSO) or H2O at 75× the final concentration. […] The next day, the OD600 was determined with a plate reader (Thermo Scientific) and normalized to percent of growth of the vehicle control after subtracting the OD600 from blank media.

Row | SMILES | Kd for FpvB relative to ferrichrome (FpvB R648C; greater than ferrichrome) [fold] | Kd for FpvB relative to ferrioxamine B (FpvB R648C; greater than ferrioxamine B) [fold] | growth in the presence of siderophore [1]
1 | NCCCCC(NC(=O)C(CO)NC(=O)[C@@H]1CCN=C2C(NC(=O)CCC(=O)O)=Cc3cc(O)c(O)cc3N21)C(=O)NCC(=O)NC(CCCN(O)C=O)C(=O)NC1CCCCNC(=O)C(CO)NC(=O)C(CCCN(O)C=O)NC1=O (stereo partly drawn) [pyoverdine] (Suc-[X1][ξS][ξK]G[ξOrn(N(OH)CHO)][ξK][ξOrn(N(OH)CHO)][ξS]; lactam 6-C) | 200 | 20 | –
2 | CC(=O)N(O)CCCCCNC(=O)CCC(=O)N(O)CCCCCNC(=O)CCC(=O)N(O)CCCCCN [ferrioxamine B] | – | – | prevented growth
